# Laboratory results: patent US10681909B2, “Herbicidal triazoles” (FMC Corporation, priority 2014, dated 2020)
# Tests used:
# nightshade = assay: Test E preemergence; format: in vivo, Solanum ptycanthum; conditions: scale 0 to 100
# From the text: (§1) Seeds of plant species selected from corn (Zea mays), soybean (Glycine max), lambsquarters (Chenopodium album), poinsettia, wild (wild poinsettia, Euphorbia heterophylla), pigweed, palmer (palmer pigweed, Amaranthus palmeri), waterhemp (common waterhemp, Amaranthus rudis), surinam grass (Brachiaria decumbens), crabgrass, large (large crabgrass, Digitaria sanguinalis), crabgrass, Brazilian (Brazilian crabgrass, Digitaria horizontalis), panicum, fall (fall panicum, Panicum dichotomiflorum), foxtail, giant (giant foxtail, Setaria faberii), foxtail, green (green foxtail, Setaria viridis), goosegrass (Eleusine indica), johnsongrass (Sorghum halepense), ragweed (common ragweed, Ambrosia elatior), barnyardgrass (Echinochloa crus-galli), sandbur (southern sandbur, Cenchrus echinatus), arrowleaf sida (Sida rhombifolia), ryegrass, Italian (Italian ryegrass, Lolium multiflorum), dayflower, VA (Virginia dayflower, Commelina virginica), field bindweed (Convolvulus arvensis), cocklebur (common cocklebur, Xanthium strumarium), morningglory (Ipomoea coccinea), nightshade (eastern black nightshade, Solanum ptycanthum), kochia (Kochia scoparia), nutsedge, yellow (yellow nutsedge, Cyperus esculentus), smartweed (ladysthumb smartweed, Polygonum persicaria), velvetleaf (Abutilon theophrasti), horseweed (Conyza canadensis), and beggarticks (hairy beggarticks, Bidens pilosa), were planted into a silt loam soil and treated preemergence with test chemicals formulated in a non-phytotoxic solvent mixture which included a surfactant.
# (§2) At the same time, plants from these crop and weed species and also waterhemp_RES1, (ALS & Triazine resistant common waterhemp, Amaranthus rudis), and waterhemp_RES2, (ALS & HPPD resistant common waterhemp, Amaranthus rudis) were planted in pots containing Sunshine Redi-Earth® planting medium comprising spaghnum peat moss, vermiculite, starter nutrients and dolomitic limestone were treated with postemergence applications of test chemicals formulated in the same manner. Plants ranged in height from 2 to 18 cm for postemergence treatments (1- to 4-leaf stage). Treated plants and controls were maintained in a greenhouse for 14 to 21 d, after which time all species were compared to controls and visually evaluated. Plant response ratings, summarized in Table E, are based on a scale of 0 to 100 where 0 is no effect and 100 is complete control. A dash (-) response means no test result.
# crabgrass, Brazilian = assay: Test E preemergence; format: in vivo, Digitaria horizontalis; conditions: Brazil, scale 0 to 100
# From the text: as §1, §2
# ryegrass, Italian [1] = assay: Test E preemergence; format: in vivo, Lolium multiflorum; conditions: scale 0 to 100
# From the text: as §1, §2
# barnyardgrass [2] = assay: Test E preemergence; format: in vivo, Echinochloa crus-galli; conditions: scale 0 to 100
# From the text: as §1, §2
# corn = assay: Test E postemergence; format: in vivo, Zea mays; conditions: scale 0 to 100
# From the text: as §1, §2
# sandbur = assay: Test E preemergence; format: in vivo, Cenchrus echinatus; conditions: scale 0 to 100
# From the text: as §1, §2
# poinsettia, wild = assay: Test E preemergence; format: in vivo, Euphorbia heterophylla; conditions: scale 0 to 100
# From the text: as §1, §2
# morningglory = assay: Test E preemergence; format: in vivo, Ipomoea coccinea; conditions: scale 0 to 100
# From the text: as §1, §2
# goosegrass = assay: Test E preemergence; format: in vivo, Eleusine indica; conditions: scale 0 to 100
# From the text: as §1, §2
# panicum, fall = assay: Test E preemergence; format: in vivo, Panicum dichotomiflorum; conditions: scale 0 to 100
# From the text: as §1, §2
# foxtail, green = assay: Test E preemergence; format: in vivo, Setaria viridis; conditions: scale 0 to 100
# From the text: as §1, §2
# surinam grass = assay: Test E preemergence; format: in vivo, Brachiaria decumbens; conditions: scale 0 to 100
# From the text: as §1, §2
# soybean = assay: Test E preemergence; format: in vivo, Glycine max; conditions: scale 0 to 100
# From the text: as §1, §2
# foxtail, giant = assay: Test E preemergence; format: in vivo, Setaria faberii; conditions: scale 0 to 100
# From the text: as §1, §2
# field bindweed = assay: Test E postemergence; format: in vivo, Convolvulus arvensis; conditions: scale 0 to 100
# From the text: as §1, §2
# velvetleaf = assay: Test E preemergence; format: in vivo, Abutilon theophrasti; conditions: scale 0 to 100
# From the text: as §1, §2
# lambsquarters = assay: Test E preemergence; format: in vivo, Chenopodium album; conditions: scale 0 to 100
# From the text: as §1, §2
# beggarticks = assay: Test E preemergence; format: in vivo, Bidens pilosa; conditions: scale 0 to 100
# From the text: as §1, §2
# ryegrass, Italian [3] = assay: Test E postemergence; format: in vivo, Lolium multiflorum; conditions: scale 0 to 100
# From the text: as §1, §2
# barnyardgrass [4] = assay: Test E postemergence; format: in vivo, Echinochloa crus-galli; conditions: scale 0 to 100
# From the text: as §1, §2
smiles,measurement,setting,value
"CCc1nc(-c2ccc(C(F)(F)F)cc2)nn1Cc1ccnc(C(F)(F)F)c1 [Compound 1, 4-[[5-ethyl-3-[4-(trifluoromethyl)phenyl]-1H-1,2,4-triazol-1-yl]methyl]-2-(trifluoromethyl)pyridine]",Plant response rating,nightshade; 16 g ai/ha,50
same,Plant response rating,nightshade; 62 g ai/ha,75
same,Plant response rating,nightshade; 125 g ai/ha,90
same,Plant response rating,nightshade; 250 g ai/ha,95
same,Plant response rating,"crabgrass, Brazilian; 62 g ai/ha",98
same,Plant response rating,"crabgrass, Brazilian; 125 g ai/ha",98
same,Plant response rating,"crabgrass, Brazilian; 250 g ai/ha",100
same,Plant response rating,"ryegrass, Italian [1]; 16 g ai/ha",0
same,Plant response rating,"ryegrass, Italian [1]; 31 g ai/ha",0
same,Plant response rating,"ryegrass, Italian [1]; 62 g ai/ha",20
same,Plant response rating,"ryegrass, Italian [1]; 125 g ai/ha",20
same,Plant response rating,"ryegrass, Italian [1]; 250 g ai/ha",40
same,Plant response rating,barnyardgrass [2]; 16 g ai/ha,0
same,Plant response rating,barnyardgrass [2]; 31 g ai/ha,10
same,Plant response rating,barnyardgrass [2]; 62 g ai/ha,30
same,Plant response rating,barnyardgrass [2]; 125 g ai/ha,30
same,Plant response rating,barnyardgrass [2]; 250 g ai/ha,50
same,Plant response rating,corn; 16 g ai/ha,5
same,Plant response rating,corn; 31 g ai/ha,5
same,Plant response rating,corn; 62 g ai/ha,5
same,Plant response rating,corn; 125 g ai/ha,10
same,Plant response rating,corn; 250 g ai/ha,10
same,Plant response rating,sandbur; 16 g ai/ha,0
same,Plant response rating,sandbur; 31 g ai/ha,10
same,Plant response rating,sandbur; 62 g ai/ha,20
same,Plant response rating,sandbur; 125 g ai/ha,40
same,Plant response rating,sandbur; 250 g ai/ha,50
same,Plant response rating,"poinsettia, wild; 16 g ai/ha",10
same,Plant response rating,"poinsettia, wild; 31 g ai/ha",30
same,Plant response rating,"poinsettia, wild; 62 g ai/ha",40
same,Plant response rating,"poinsettia, wild; 125 g ai/ha",40
same,Plant response rating,"poinsettia, wild; 250 g ai/ha",50
same,Plant response rating,morningglory; 16 g ai/ha,10
same,Plant response rating,morningglory; 31 g ai/ha,40
same,Plant response rating,morningglory; 125 g ai/ha,60
same,Plant response rating,morningglory; 250 g ai/ha,100
same,Plant response rating,goosegrass; 16 g ai/ha,50
same,Plant response rating,goosegrass; 31 g ai/ha,60
same,Plant response rating,goosegrass; 62 g ai/ha,60
same,Plant response rating,goosegrass; 125 g ai/ha,75
same,Plant response rating,goosegrass; 250 g ai/ha,100
same,Plant response rating,"panicum, fall; 16 g ai/ha",15
same,Plant response rating,"panicum, fall; 31 g ai/ha",60
same,Plant response rating,"panicum, fall; 62 g ai/ha",80
same,Plant response rating,"panicum, fall; 125 g ai/ha",100
same,Plant response rating,"panicum, fall; 250 g ai/ha",100
same,Plant response rating,"foxtail, green; 16 g ai/ha",20
same,Plant response rating,"foxtail, green; 31 g ai/ha",50
same,Plant response rating,"foxtail, green; 62 g ai/ha",50
same,Plant response rating,"foxtail, green; 125 g ai/ha",80
same,Plant response rating,"foxtail, green; 250 g ai/ha",100
same,Plant response rating,surinam grass; 16 g ai/ha,0
same,Plant response rating,surinam grass; 31 g ai/ha,0
same,Plant response rating,surinam grass; 62 g ai/ha,10
same,Plant response rating,surinam grass; 125 g ai/ha,20
same,Plant response rating,surinam grass; 250 g ai/ha,20
same,Plant response rating,soybean; 16 g ai/ha,0
same,Plant response rating,soybean; 31 g ai/ha,0
same,Plant response rating,soybean; 62 g ai/ha,0
same,Plant response rating,soybean; 125 g ai/ha,10
same,Plant response rating,soybean; 250 g ai/ha,35
same,Plant response rating,"foxtail, giant; 16 g ai/ha",20
same,Plant response rating,"foxtail, giant; 31 g ai/ha",30
same,Plant response rating,"foxtail, giant; 62 g ai/ha",80
same,Plant response rating,"foxtail, giant; 125 g ai/ha",80
same,Plant response rating,"foxtail, giant; 250 g ai/ha",98
same,Plant response rating,field bindweed; 16 g ai/ha,40
same,Plant response rating,field bindweed; 31 g ai/ha,55
same,Plant response rating,field bindweed; 62 g ai/ha,65
same,Plant response rating,field bindweed; 125 g ai/ha,65
same,Plant response rating,field bindweed; 250 g ai/ha,75
same,Plant response rating,velvetleaf; 16 g ai/ha,0
same,Plant response rating,velvetleaf; 31 g ai/ha,10
same,Plant response rating,velvetleaf; 62 g ai/ha,10
same,Plant response rating,velvetleaf; 125 g ai/ha,30
same,Plant response rating,velvetleaf; 250 g ai/ha,50
same,Plant response rating,lambsquarters; 16 g ai/ha,10
same,Plant response rating,lambsquarters; 31 g ai/ha,65
same,Plant response rating,lambsquarters; 62 g ai/ha,90
same,Plant response rating,lambsquarters; 125 g ai/ha,95
same,Plant response rating,lambsquarters; 250 g ai/ha,95
same,Plant response rating,beggarticks; 16 g ai/ha,0
same,Plant response rating,beggarticks; 31 g ai/ha,0
same,Plant response rating,beggarticks; 62 g ai/ha,0
same,Plant response rating,beggarticks; 125 g ai/ha,20
same,Plant response rating,beggarticks; 250 g ai/ha,60
same,Plant response rating,"ryegrass, Italian [3]; 16 g ai/ha",0
same,Plant response rating,"ryegrass, Italian [3]; 31 g ai/ha",10
same,Plant response rating,"ryegrass, Italian [3]; 62 g ai/ha",10
same,Plant response rating,"ryegrass, Italian [3]; 125 g ai/ha",15
same,Plant response rating,"ryegrass, Italian [3]; 250 g ai/ha",25
same,Plant response rating,barnyardgrass [4]; 16 g ai/ha,10
same,Plant response rating,barnyardgrass [4]; 31 g ai/ha,10
same,Plant response rating,barnyardgrass [4]; 62 g ai/ha,15
same,Plant response rating,barnyardgrass [4]; 125 g ai/ha,20
same,Plant response rating,barnyardgrass [4]; 250 g ai/ha,30
